Experimental findings from ChEMBL document CHEMBL1140387, “1-Aryl-3,4-dihydro-1H-quinolin-2-one derivatives, novel and selective norepinephrine reuptake inhibitors” (Bioorg Med Chem Lett, 2005) are described below.

The target in assay [1] is T1, Sodium-dependent serotonin transporter (Homo sapiens, UniProt P31645). Description: Inhibition of monoamine reuptake at serotonin transporter.
Target sequence in this assay (P31645 whole entry): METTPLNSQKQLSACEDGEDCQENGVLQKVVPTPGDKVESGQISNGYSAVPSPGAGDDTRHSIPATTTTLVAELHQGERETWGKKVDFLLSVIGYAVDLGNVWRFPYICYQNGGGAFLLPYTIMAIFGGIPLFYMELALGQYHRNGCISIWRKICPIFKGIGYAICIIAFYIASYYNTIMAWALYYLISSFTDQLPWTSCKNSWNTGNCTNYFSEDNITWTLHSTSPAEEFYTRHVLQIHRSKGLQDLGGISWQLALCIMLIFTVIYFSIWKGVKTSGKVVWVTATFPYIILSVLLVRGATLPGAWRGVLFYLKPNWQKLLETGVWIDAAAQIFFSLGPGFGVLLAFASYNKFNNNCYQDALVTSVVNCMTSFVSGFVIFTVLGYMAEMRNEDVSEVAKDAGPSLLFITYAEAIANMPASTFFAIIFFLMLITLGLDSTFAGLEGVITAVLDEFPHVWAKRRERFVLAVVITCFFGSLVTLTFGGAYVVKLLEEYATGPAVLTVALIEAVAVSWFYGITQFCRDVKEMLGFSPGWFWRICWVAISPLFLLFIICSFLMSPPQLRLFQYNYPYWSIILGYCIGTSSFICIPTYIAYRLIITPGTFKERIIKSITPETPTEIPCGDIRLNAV
In assay [2] the target is T2, Sodium-dependent dopamine transporter (Homo sapiens, UniProt Q01959). Description: Percentage displacement of [3H]WIN-35428 radioligand from dopamine transporter at concentration of 1000 nM. (Loss of bound radioactivity is the signal in a displacement assay; it reports binding, not function.)
Assay [3] concerns the target T1, Sodium-dependent serotonin transporter. The assay can be described thus: Percentage displacement of [3H]citalopram radioligand from serotonin transporter at concentration of 100 nM.
Target sequence in this assay (P31645 whole entry, looked up): as the sequence (P31645 whole entry) above
The target in assay [4] is T2, Sodium-dependent dopamine transporter. Description: Inhibition of monoamine reuptake at dopamine transporter.
For assay [5], the target named is T3, Sodium-dependent noradrenaline transporter (Homo sapiens, UniProt P23975). The assay can be described thus: Inhibition of monoamine reuptake at norepinephrine transporter.
Assay [6] addresses T3, Sodium-dependent noradrenaline transporter. The assay can be described thus: Percentage displacement of [3H]nisoxetine radioligand from norepinephrine transporter at concentration of 1000 nM.

Usually Ki stands for the equilibrium dissociation constant of an inhibitor or competing ligand from its target.

T3 sequence (P23975 whole entry): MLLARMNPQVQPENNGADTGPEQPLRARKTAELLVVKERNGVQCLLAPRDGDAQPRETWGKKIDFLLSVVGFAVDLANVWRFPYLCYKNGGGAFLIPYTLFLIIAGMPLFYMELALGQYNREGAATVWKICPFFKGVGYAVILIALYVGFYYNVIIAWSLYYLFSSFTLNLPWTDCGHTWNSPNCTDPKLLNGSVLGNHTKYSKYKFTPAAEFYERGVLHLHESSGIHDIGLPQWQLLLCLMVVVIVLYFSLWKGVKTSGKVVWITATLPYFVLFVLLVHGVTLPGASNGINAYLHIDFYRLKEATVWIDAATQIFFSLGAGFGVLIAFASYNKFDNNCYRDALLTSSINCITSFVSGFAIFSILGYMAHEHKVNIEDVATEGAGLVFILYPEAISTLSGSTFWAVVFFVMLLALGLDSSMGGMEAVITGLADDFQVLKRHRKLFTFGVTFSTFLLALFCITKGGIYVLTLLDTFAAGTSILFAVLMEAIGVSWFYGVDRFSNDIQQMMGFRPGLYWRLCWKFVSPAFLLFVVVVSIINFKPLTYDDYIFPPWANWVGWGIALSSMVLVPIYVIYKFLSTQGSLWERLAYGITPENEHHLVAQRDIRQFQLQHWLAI
T2 sequence (Q01959 whole entry): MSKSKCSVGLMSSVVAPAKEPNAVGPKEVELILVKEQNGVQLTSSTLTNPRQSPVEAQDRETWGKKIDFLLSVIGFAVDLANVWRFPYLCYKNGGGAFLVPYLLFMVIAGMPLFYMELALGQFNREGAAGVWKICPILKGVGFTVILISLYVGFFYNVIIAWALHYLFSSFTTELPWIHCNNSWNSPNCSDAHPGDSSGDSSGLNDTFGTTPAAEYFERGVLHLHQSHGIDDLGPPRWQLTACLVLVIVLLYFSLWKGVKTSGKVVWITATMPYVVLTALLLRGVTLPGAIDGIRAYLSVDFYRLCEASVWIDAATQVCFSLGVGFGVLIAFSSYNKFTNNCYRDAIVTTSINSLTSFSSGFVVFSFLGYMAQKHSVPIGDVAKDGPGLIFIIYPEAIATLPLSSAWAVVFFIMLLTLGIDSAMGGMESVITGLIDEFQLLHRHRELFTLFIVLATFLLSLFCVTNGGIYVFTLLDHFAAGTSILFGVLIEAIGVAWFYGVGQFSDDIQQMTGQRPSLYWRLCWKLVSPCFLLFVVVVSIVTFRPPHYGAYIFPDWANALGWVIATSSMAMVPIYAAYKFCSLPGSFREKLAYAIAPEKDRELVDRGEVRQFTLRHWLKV

Consider `CNCCCC1Cc2ccccc2N(c2ccc(Cl)cc2)C1=O` (centres undefined), for which the Ki was above 100 nM in assay [1], above 200 nM in assay [4] and 21 nM in assay [5]. Further, the Activity in assay [2] was determined as 50%; in assay [3], 8%.
In the case of `CNCCCCC1Cc2ccccc2N(c2ccccc2)C1=O` (centres undefined), the inhibition constant (Ki) in assay [1] is above 100 nM; in assay [4] it was above 200 nM; in assay [5], above 200 nM. Further, the Activity in assay [2] is 12%; in assay [3], -3%; in assay [6], 53%.
Turning to `CNCCCC1(C)Cc2ccccc2N(c2ccccc2)C1=O` (racemic), the values for the inhibitory constant (Ki) in assay [1], in assay [4] and in assay [5] were above 100 nM, above 200 nM and 44 nM, respectively. Also, the Activity worked out at 10% in assay [2] and 9% in assay [3].
In the same order, the values of `CNCCCC1Cc2ccccc2N(c2cccc(Cl)c2)C1=O` (racemic) are above 100 nM, above 200 nM, 79 nM, 64% and 7%.
Regarding `CNCCCC1Cc2cc(F)ccc2N(c2ccc(C)cc2)C1=O` (racemic), the Ki in assay [1] was above 100 nM; in assay [4], above 200 nM; in assay [5], 5 nM. The Activity in assay [2] was found to be 5%; in assay [3], 45%.
The matching figures for `CNCCCC1Cc2ccccc2N(c2ccc(F)cc2)C1=O` (racemic): above 100 nM, above 200 nM, 92 nM, 5% and 7%.
Consider `CCCCC1(CCCNC)Cc2ccccc2N(c2ccc(C)cc2)C1=O` (racemic), for which, in assay [2], the Activity amounted to 18%. Also, the Ki in assay [4] is above 200 nM; in assay [5] it was 8 nM.
As for `CNCCCC1Cc2ccccc2N(c2ccccc2)C1=O` (racemic) [listing 1 of 2 here], the inhibitory constant (Ki) in assay [1] was above 100 nM; in assay [4] it was above 200 nM; in assay [5], 10 nM.
Take `CNCCCC1Cc2ccccc2N(c2cccc(F)c2)C1=O` (racemic): the inhibition constant (Ki) in assay [1] is above 100 nM; in assay [4], above 200 nM; in assay [5], 18 nM. In addition, the Activity in assay [2] was found to be 10%; in assay [3], 9%.
In the same order, the values of `CCC1(CCCNC)Cc2ccccc2N(c2ccc(C)cc2)C1=O` (racemic) are above 100 nM, above 200 nM, 17 nM, 11% and 11%.
In the same order, the values of `CCC1(CCCNC)Cc2ccccc2N(c2ccccc2)C1=O` (racemic) are above 100 nM, above 200 nM, 10 nM, 6% and 12%.
The matching figures for `CNCCCC1(C)Cc2ccccc2N(c2ccc(F)c(F)c2)C1=O` (racemic): above 100 nM, above 200 nM, 77 nM, 50% and 11%.
For `CNCCCC1Cc2ccccc2N(c2ccc(C)cc2)C1=O` (racemic), the Ki in assay [1] was above 100 nM; in assay [4], above 200 nM; in assay [5] it was 3 nM. The Activity in assay [2] was found to be 19%; in assay [3], 15%.
The matching figures for `CCc1ccc(N2C(=O)C(CCCNC)Cc3ccccc32)cc1` (racemic): above 100 nM, above 200 nM, 150 nM, 9% and 3%.
Consider `CNCCCC1(C)Cc2ccccc2N(c2ccc(C)cc2)C1=O` (racemic), for which the Ki in assay [1] is above 100 nM; in assay [4] it was above 200 nM; in assay [5] it was 9 nM. Besides, the Activity in assay [2] worked out at 3%; in assay [3], 12%.
As for `CNCCCC1(C)Cc2ccccc2N(c2ccc(C(C)C)cc2)C1=O` (racemic), the figures for the Ki in assay [1], in assay [4] and in assay [5] were above 100 nM, above 200 nM and above 200 nM, respectively. Moreover, the results for the Activity in assay [2], in assay [3] and in assay [6] were 2%, 5% and 18%, respectively.
Turning to `CNCCCC1(C)Cc2cc(Cl)ccc2N(c2ccc(C)cc2)C1=O` (racemic), the results for the Ki in assay [1] and in assay [5] were above 100 nM and 43 nM, respectively. Moreover, the Activity in assay [3] worked out at 15%.
Consider `CNCCCC1Cc2ccccc2N(c2ccc(Cl)c(Cl)c2)C1=O` (racemic), for which the results for the Ki in assay [1], in assay [4] and in assay [5] were above 100 nM, 13 nM and 62 nM, respectively. Moreover, the Activity in assay [3] came to 8%.
Regarding `CNCCCC1(C)Cc2ccccc2N(c2cc(F)cc(F)c2)C1=O` (racemic), the Ki in assay [1] was above 100 nM; in assay [4], above 200 nM; in assay [5] it was 165 nM. In addition, the values for the Activity in assay [2] and in assay [3] were 19% and 9%, respectively.
Turning to `CCCC1(CCCNC)Cc2ccccc2N(c2ccccc2)C1=O` (racemic), the results for the Ki in assay [1], in assay [4] and in assay [5] were above 100 nM, above 200 nM and 7 nM, respectively. For the same molecule, the Activity in assay [2] came to 3%; in assay [3], 51%.
Regarding `CCC1(CCCNC)Cc2cc(Cl)ccc2N(c2ccc(C)cc2)C1=O` (racemic), the Ki in assay [1] was 128 nM; in assay [4] it was above 200 nM; in assay [5] it was 47 nM. Further, the Activity in assay [2] was found to be 3%.
The matching figures for `CCCC1(CCCNC)Cc2ccccc2N(c2ccc(C)cc2)C1=O` (racemic): 160 nM, above 200 nM, 11 nM and 9%.
On to `CNCCCC1(C)Cc2ccccc2N(c2cccc(C)c2)C1=O` (racemic), for which the Ki in assay [1] was above 100 nM; in assay [4] it was above 200 nM; in assay [5] it was 146 nM. For the same molecule, the Activity in assay [2] and in assay [3] was 9% in each case.
`CNCCCC1Cc2ccccc2N(c2ccc(C(F)(F)F)cc2)C1=O` (racemic): the Ki is above 100 nM in assay [1], above 200 nM in assay [4] and 1430 nM in assay [5]. Also, the Activity in assay [2] is 12%; in assay [3], 1%.
The matching figures for `CNCCCC1Cc2cc(Cl)ccc2N(c2ccc(C)cc2)C1=O` (racemic): above 100 nM, above 200 nM, 6 nM, 7% and 15%.
Consider `CNCCCC1(C)Cc2ccccc2N(c2cc(Cl)cc(Cl)c2)C1=O` (racemic), for which the Ki in assay [1] is above 100 nM; in assay [4], above 200 nM; in assay [5] it was above 200 nM. Besides, the Activity in assay [2] stood at 41%; in assay [3] it was 10%; in assay [6], 39%.
For the molecule `CNCCCC1(C(C)C)Cc2ccccc2N(c2ccc(C)cc2)C1=O` (racemic), in assay [2], the Activity is 7%. In addition, the results for the inhibition constant (Ki) in assay [4] and in assay [5] were above 200 nM and 150 nM, respectively.
Consider `CNCCCC1Cc2ccccc2N(c2ccccc2)C1=O` (racemic) [listing 2 of 2 here], for which the Activity was 24% in assay [2] and 0% in assay [3].
As for `CNCCC1Cc2ccccc2N(c2ccccc2)C1=O` (single isomer, unassigned; isomer 1) [listing 1 of 2 here], the Ki is above 100 nM in assay [1], above 200 nM in assay [4] and 38 nM in assay [5].
Turning to `CNCCCC1Cc2ccccc2N(c2ccccc2)C1=O` (single isomer, unassigned; isomer 1) [listing 1 of 2 here], the inhibition constant Ki was above 100 nM in assay [1], above 200 nM in assay [4] and 8 nM in assay [5].
As for `CNCCC1Cc2ccccc2N(c2ccccc2)C1=O` (single isomer, unassigned; isomer 1) [listing 2 of 2 here], the values for the Activity in assay [2] and in assay [3] were 13% and 1%, respectively.
`CNCCCC1Cc2ccccc2N(c2ccccc2)C1=O` (single isomer, unassigned; isomer 1) [listing 2 of 2 here]: the Activity is 11% in assay [2] and 5% in assay [3].
Take `CNCCC1Cc2ccccc2N(c2ccccc2)C1=O` (stereo in doubt) [listing 1 of 2 here]: the values for the Ki in assay [1], in assay [4] and in assay [5] were above 100 nM, above 200 nM and 54 nM, respectively.
As for `CNCCCC1Cc2ccccc2N(c2ccccc2)C1=O` (stereo in doubt) [listing 1 of 2 here], the Ki in assay [1] is above 100 nM; in assay [4], above 200 nM; in assay [5], 190 nM.
Consider `CNCCC1Cc2ccccc2N(c2ccccc2)C1=O` (stereo in doubt) [listing 2 of 2 here], for which the Activity in assay [2] and in assay [3] was 9% each time.
Take `CNCCCC1Cc2ccccc2N(c2ccccc2)C1=O` (stereo in doubt) [listing 2 of 2 here]: the Activity in assay [2] stood at 5%; in assay [3], 4%.
